The record followed here is US20230295157A1, “3-(1H-IMIDAZOL-2-YL)-2,3,8,8A-TETRAHYDROINDOLIZIN-5(1H)-ONE DERIVATIVES USEFUL AS FACTOR XIA INHIBITORS” (JANSSEN PHARMACEUTICA NV, priority 2020, published 2023).

The target of test [1] is human plasma kallikrein (Homo sapiens (Human), UniProt P03952). As to the kind of experiment: Kallikrein inhibition assay (FLINT) utilizing a quenched AMC peptide substrate. Format: biochemical. The following applies: 30 min preincubation, kinetic reads over 30 min, Z-Gly-Pro-Arg-AMC substrate 50 μM; read-out: Kallikrein Kin Inh IC50. An outline of the steps:
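Fluorogenic Z-Gly-Pro-Arg-AMC cleavage (50 μM substrate, 2 nM kallikrein, Tris pH 7.5, CaCl2, BSA, CHAPS, 2% DMSO) read kinetically at 340/440 nm for 30 min after 30-min compound pre-incubation. Compounds in 11-point 3-fold series from 1 μM; percent inhibition fitted to four-parameter equation for IC50.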

Test [2] deals with Factor XIa (Homo sapiens (Human), UniProt P03951). Kind of test: Factor XIa inhibition assay (FLINT) utilizing a fluorophore-quencher pair peptide substrate. The following applies: 30 min preincubation, kinetic reads over 30 min, 5Fam-KLTRAETV-K5Tamra substrate 15 μM; read-out: FXIa Kin Inh IC50. Type of test: biochemical. Summed up:
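FXIa ([…]) preincubated 30 min with compound (11-point 3-fold dilution, top 100 nM, 2% DMSO), then 15 μM quenched FXI Arg146-based peptide added; Tris pH 7.5, CaCl2, BSA, CHAPS. Fluorescence 485/520 nm read kinetically every 5 min over 30 min at RT; IC50 by 4-parameter fit.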

Sequence of human plasma kallikrein (P03952 391-638): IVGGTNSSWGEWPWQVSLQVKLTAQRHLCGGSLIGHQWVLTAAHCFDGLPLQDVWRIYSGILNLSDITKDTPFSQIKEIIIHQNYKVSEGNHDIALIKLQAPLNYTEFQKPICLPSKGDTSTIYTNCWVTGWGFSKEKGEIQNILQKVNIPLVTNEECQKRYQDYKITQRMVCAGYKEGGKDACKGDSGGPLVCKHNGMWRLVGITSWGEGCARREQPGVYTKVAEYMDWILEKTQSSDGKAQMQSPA
Sequence of human plasma kallikrein (P03952 20-390 partner): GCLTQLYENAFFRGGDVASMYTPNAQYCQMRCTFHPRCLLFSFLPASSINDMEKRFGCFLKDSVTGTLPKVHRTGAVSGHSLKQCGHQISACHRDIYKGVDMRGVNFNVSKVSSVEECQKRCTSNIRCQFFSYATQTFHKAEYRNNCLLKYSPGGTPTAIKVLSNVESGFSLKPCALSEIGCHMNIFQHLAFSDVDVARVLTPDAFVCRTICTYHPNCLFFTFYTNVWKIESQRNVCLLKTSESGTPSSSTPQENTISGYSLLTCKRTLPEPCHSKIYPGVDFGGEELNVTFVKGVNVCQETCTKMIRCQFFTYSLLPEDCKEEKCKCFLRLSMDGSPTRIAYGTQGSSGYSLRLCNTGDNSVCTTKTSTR
Sequence of Factor XIa (P03951 388-625): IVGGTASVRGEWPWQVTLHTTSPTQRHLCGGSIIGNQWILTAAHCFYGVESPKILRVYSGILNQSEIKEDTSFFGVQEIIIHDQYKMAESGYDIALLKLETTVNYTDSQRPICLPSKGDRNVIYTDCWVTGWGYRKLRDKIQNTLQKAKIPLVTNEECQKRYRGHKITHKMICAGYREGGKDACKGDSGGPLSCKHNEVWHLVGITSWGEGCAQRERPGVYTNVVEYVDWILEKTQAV
Sequence of Factor XIa (P03951 19-387 partner): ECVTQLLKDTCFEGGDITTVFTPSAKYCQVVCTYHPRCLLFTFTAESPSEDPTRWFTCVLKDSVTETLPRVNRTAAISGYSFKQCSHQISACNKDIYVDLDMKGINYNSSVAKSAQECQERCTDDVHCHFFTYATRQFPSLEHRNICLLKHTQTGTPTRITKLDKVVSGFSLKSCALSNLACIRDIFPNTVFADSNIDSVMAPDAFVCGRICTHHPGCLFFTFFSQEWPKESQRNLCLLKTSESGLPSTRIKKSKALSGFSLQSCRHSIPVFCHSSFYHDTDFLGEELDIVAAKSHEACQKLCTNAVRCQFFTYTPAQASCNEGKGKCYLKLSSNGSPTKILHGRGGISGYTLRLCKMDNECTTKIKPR

Consider `CCN(CCO)c1nccc(-c2cnc([C@@H]3CC[C@@H]4CC(c5c(-n6cnnn6)ccc(Cl)c5F)=CC(=O)N43)[nH]2)c1F` (single isomer, unassigned) [Example 136, (3S,8a*R)-7-(3-chloro-2-fluoro-6-(1H-tetrazol-1-yl)phenyl)-3-(5-(2-(ethyl(2-hydroxyethyl)amino)-3-fluoropyridin-4-yl)-1H-imidazol-2-yl)-2,3,8,8a-tetrahydroindolizin-5(1H)-one], for which the IC50 (in general, the concentration at which inhibition is half-maximal) turned out to be 6.3 nM in test [1] and 4.8 nM in test [2].

With `N#CC1(c2nccc(-c3cnc([C@@H]4CC[C@@H]5CC(c6c(-n7cnnn7)ccc(Cl)c6F)=CC(=O)N54)[nH]3)c2F)COC1` (single isomer, unassigned) [Example 138, 3-(4-(2-((3S,8aR*)-7-(3-chloro-2-fluoro-6-(1H-tetrazol-1-yl)phenyl)-5-oxo-1,2,3,5,8,8a-hexahydroindolizin-3-yl)-1H-imidazol-5-yl)-3-fluoropyridin-2-yl)oxetane-3-carbonitrile], the figures for the IC50 in test [1] and in test [2] were 138 nM and 32 nM, respectively.

With `N#CC1(c2nccc(-c3cnc([C@@H]4CC[C@@H]5CC(c6c(-n7cnnn7)ccc(Cl)c6F)=CC(=O)N54)[nH]3)c2F)CC1` (single isomer, unassigned) [Example 139, 1-(4-(2-((3S,8a*R)-7-(3-chloro-2-fluoro-6-(1H-tetrazol-1-yl)phenyl)-5-oxo-1,2,3,5,8,8a-hexahydroindolizin-3-yl)-1H-imidazol-5-yl)-3-fluoropyridin-2-yl)cyclopropane-1-carbonitrile], the values for the IC50 in test [1] and in test [2] were 22 nM and 29.1 nM, respectively.

Consider `O=C1C=C(c2c(-n3cc(C(F)(F)F)nn3)ccc(Cl)c2F)C[C@@H]2CC[C@H](c3ncc(-c4c[nH]c5ncccc45)[nH]3)N12` (single isomer, unassigned) [Example 140, (3*R,8aS)-3-(5-(1H-pyrrolo[2,3-b]pyridin-3-yl)-1H-imidazol-2-yl)-7-(3-chloro-2-fluoro-6-(4-(trifluoromethyl)-1H-1,2,3-triazol-1-yl)phenyl)-2,3,8,8a-tetrahydroindolizin-5(1H)-one], for which the results for the IC50 in test [1] and in test [2] were 6.2 nM and 2.9 nM, respectively.

`C[C@@H](Oc1nccc(-c2cnc([C@@H]3CC[C@@H]4CC(c5c(-n6cnnn6)ccc(Cl)c5F)=CC(=O)N43)[nH]2)c1F)c1ncco1` (single isomer, unassigned) [Example 141, (3*S,8a*R)-7-(3-chloro-2-fluoro-6-(1H-tetrazol-1-yl)phenyl)-3-(5-(3-fluoro-2-((*R)-1-(oxazol-2-yl)ethoxy)pyridin-4-yl)-1H-imidazol-2-yl)-2,3,8,8a-tetrahydroindolizin-5(1H)-one]: the IC50 in test [1] came to 13 nM; in test [2], 10.8 nM.

`C[C@H](Oc1nccc(-c2cnc([C@@H]3CC[C@@H]4CC(c5c(-n6cnnn6)ccc(Cl)c5F)=CC(=O)N43)[nH]2)c1F)c1ncco1` (single isomer, unassigned) [Example 142, (3*S,8a*R)-7-(3-chloro-2-fluoro-6-(1H-tetrazol-1-yl)phenyl)-3-(5-(3-fluoro-2-((*S)-1-(oxazol-2-yl)ethoxy)pyridin-4-yl)-1H-imidazol-2-yl)-2,3,8,8a-tetrahydroindolizin-5(1H)-one]: the IC50 was found to be 10.7 nM in test [1] and 6.2 nM in test [2].

Turning to `O=C1C=C(c2c(-n3cnnn3)ccc(Cl)c2F)C[C@H]2CC[C@@H](c3ncc(-c4ccnc(C[C@H](O)C(F)(F)F)c4F)[nH]3)N12` (single isomer, unassigned) [Example 143, (3S,8aR)-7-(3-chloro-2-fluoro-6-(1H-tetrazol-1-yl)phenyl)-3-(5-(3-fluoro-2-((*S)-3,3,3-trifluoro-2-hydroxypropyl)pyridin-4-yl)-1H-imidazol-2-yl)-2,3,8,8a-tetrahydroindolizin-5(1H)-one], the concentration for half-maximal inhibition (IC50) in test [1] was found to be 33 nM; in test [2], 2.4 nM.

With `O=C1C=C(c2c(-n3cnnn3)ccc(Cl)c2F)C[C@H]2CC[C@@H](c3ncc(-c4ccnc(C[C@@H](O)C(F)(F)F)c4F)[nH]3)N12` (single isomer, unassigned) [Example 144, (3S,8aR)-7-(3-chloro-2-fluoro-6-(1H-tetrazol-1-yl)phenyl)-3-(5-(3-fluoro-2-((*R)-3,3,3-trifluoro-2-hydroxypropyl)pyridin-4-yl)-1H-imidazol-2-yl)-2,3,8,8a-tetrahydroindolizin-5(1H)-one], the half-maximal inhibitory concentration (IC50) in test [1] worked out at 43.5 nM; in test [2], 3.1 nM.

As for `O=C1C=C(c2c(-n3cc(C(F)(F)F)nn3)ccc(Cl)c2F)C[C@H]2CC[C@@H](c3ncc(-c4ccc5[nH]c(=O)ccc5c4)[nH]3)N12` (single isomer, unassigned) [Example 152, 6-[2-[(3S,8a*R)-7-[3-chloro-2-fluoro-6-[4-(trifluoromethyl)triazol-1-yl]phenyl]-5-oxo-2,3,8,8a-tetrahydro-1H-indolizin-3-yl]-1H-imidazol-5-yl]-1H-quinolin-2-one], the IC50 was 1 nM in test [1] and 0.7 nM in test [2].

Regarding `O=C1C=C(c2c(-n3cnnn3)ccc(Cl)c2F)C[C@H]2CC[C@@H](c3ncc(-c4ccnc(OC[C@@H]5COCCO5)c4F)[nH]3)N12` (single isomer, unassigned) [Example 157, (3*S,8aR)-3-(5-(2-(((S)-1,4-dioxan-2-yl)methoxy)-3-fluoropyridin-4-yl)-1H-imidazol-2-yl)-7-(3-chloro-2-fluoro-6-(1H-tetrazol-1-yl)phenyl)-2,3,8,8a-tetrahydroindolizin-5(1H)-one], the IC50 came to 6.8 nM in test [1] and 2 nM in test [2].

`CC(C)(O)CCc1nccc(-c2cnc([C@@H]3CC[C@@H]4CC(c5c(-n6cnnn6)ccc(Cl)c5F)=CC(=O)N43)[nH]2)c1F` (single isomer, unassigned) [Example 158, (3*S,8a*R)-7-(3-chloro-2-fluoro-6-(1H-tetrazol-1-yl)phenyl)-3-(5-(3-fluoro-2-(3-hydroxy-3-methylbutyl)pyridin-4-yl)-1H-imidazol-2-yl)-2,3,8,8a-tetrahydroindolizin-5(1H)-one]: the IC50 in test [1] was determined as 7.8 nM; in test [2], 1 nM.

On to `CC(C)(O)CCc1nccc(-c2cnc([C@@H]3CC[C@H]4CC(c5c(-n6cnnn6)ccc(Cl)c5F)=CC(=O)N43)[nH]2)c1F` (single isomer, unassigned) [Example 159, (3*S,8a*S)-7-(3-chloro-2-fluoro-6-(1H-tetrazol-1-yl)phenyl)-3-(5-(3-fluoro-2-(3-hydroxy-3-methylbutyl)pyridin-4-yl)-1H-imidazol-2-yl)-2,3,8,8a-tetrahydroindolizin-5(1H)-one], for which the 50% inhibitory concentration (IC50) in test [1] was determined as 22.2 nM; in test [2], 5.4 nM.

Regarding `O=C1C=C(c2c(-n3cnnn3)ccc(Cl)c2F)C[C@H]2CC[C@H](c3ncc(-c4ccnc(C5(O)CC5)c4F)[nH]3)N12` (single isomer, unassigned) [Example 162, (3*R,8aR)-7-(3-chloro-2-fluoro-6-(1H-tetrazol-1-yl)phenyl)-3-(5-(3-fluoro-2-(1-hydroxycyclopropyl)pyridin-4-yl)-1H-imidazol-2-yl)-2,3,8,8a-tetrahydroindolizin-5(1H)-one], the IC50 in test [1] came out at 30.6 nM; in test [2], 4.2 nM.

Consider `NC(=O)Cc1nccc(-c2cnc([C@@H]3CC[C@@H]4CC(c5c(-n6cc(C(F)(F)F)nn6)ccc(Cl)c5F)=CC(=O)N43)[nH]2)c1F` (single isomer, unassigned) [Example 165, 2-(4-(24(3*S,8a*R)-7-(3-chloro-2-fluoro-6-(4-(trifluoromethyl)-1H-1,2,3-triazol-1-yl)phenyl)-5-oxo-1,2,3,5,8,8a-hexahydroindolizin-3-yl)-1H-imidazol-5-yl)-3-fluoropyridin-2-yl)acetamide], for which the concentration for half-maximal inhibition (IC50) in test [1] stood at 123 nM; in test [2], 8 nM.

Regarding `C[C@H](CO)Oc1nccc(-c2cnc([C@@H]3CC[C@@H]4CC(c5c(-n6cnnn6)ccc(Cl)c5F)=CC(=O)N43)[nH]2)c1F` (single isomer, unassigned) [Example 168, (3S,8a*R)-7-(3-chloro-2-fluoro-6-(1H-tetrazol-1-yl)phenyl)-3-(5-(3-fluoro-2-(((R)-1-hydroxypropan-2-yl)oxy)pyridin-4-yl)-1H-imidazol-2-yl)-2,3,8,8a-tetrahydroindolizin-5(1H)-one], the IC50 in test [1] amounted to 4.9 nM; in test [2], 0.8 nM.

As to `O=C1C=C(c2c(-n3cnnn3)ccc(Cl)c2F)C[C@@H]2CC[C@@H](c3ncc(-c4ccnc([C@H](O)C(F)(F)F)c4F)[nH]3)N12` (single isomer, unassigned) [Example 170], the results for the IC50 in test [1] and in test [2] were 31.8 nM and 17.9 nM, respectively.

In the case of `O=C1C=C(c2c(-n3cnnn3)ccc(Cl)c2F)C[C@H]2CC[C@@H](c3ncc(-c4ccnc([C@@H](O)C(F)(F)F)c4F)[nH]3)N12` (single isomer, unassigned) [Example 171, (3*S,8a*R)-7-(3-chloro-2-fluoro-6-(1H-tetrazol-1-yl)phenyl)-3-(5-(3-fluoro-2-((*R)-2,2,2-trifluoro-1-hydroxyethyl)pyridin-4-yl)-1H-imidazol-2-yl)-2,3,8,8a-tetrahydroindolizin-5(1H)-one], the IC50 in test [1] was determined as 31.7 nM; in test [2], 4.1 nM.

For the molecule `O=C1C=C(c2c(-n3cnnn3)ccc(Cl)c2F)C[C@@H]2CC[C@@H](c3nc(Cl)c(-c4ccnc([C@H](O)C(F)(F)F)c4)[nH]3)N12` (single isomer, unassigned) [Example 172, (3*S,8a*S)-7-(3-chloro-2-fluoro-6-(1H-tetrazol-1-yl)phenyl)-3-(4-chloro-5-(2-((*S)-2,2,2-trifluoro-1-hydroxyethyl)pyridin-4-yl)-1H-imidazol-2-yl)-2,3,8,8a-tetrahydroindolizin-5(1H)-one], the IC50 in test [1] came out at 6.1 nM; in test [2], 3.6 nM.
